Reference: patent US20230159453A1 (COCRYSTAL PHARMA, INC., priority 2020, published 2023)
pIC50: −log10 of the molar value.

The molecules below were run against SARS2 protease (Severe acute respiratory syndrome coronavirus 2, UniProt P0DTD1) (assay: SARS-CoV-2 protease inhibition assay (SARS2 FRET protease assay)). Details: SARS-CoV-2 protease 25 nM, FRET, peptide substrate 1.3 μM, 30 minutes at 30° C., compounds 20 μM to 1.0 nM; read-out: IC50.
Type: biochemical

| SMILES | pIC50 |
| --- | --- |
| CC(=O)N1CCC2(CC1)C[C@H](C[C@H](NC(=O)[C@H](CC1CCCCC1)NC(=O)c1cc3ccccc3[nH]1)C(=O)C(N)=O)C(=O)N2 [Compound C125, N—((S)-1-(((S)-1-((S)-8-acetyl-2-oxo-1,8-diazaspiro[4.5]decan-3-yl)-4-amino-3,4-dioxobutan-2-yl)amino)-3-cyclohexyl-1-oxopropan-2-yl)-1H-indole-2-carboxamide] | 7.70 |
| CC(=O)N1CCC2(CC1)CC(CC(NC(=O)[C@H](CC1CCCCC1)NC(=O)c1cc3cc(Cl)ccc3[nH]1)C(=O)C(N)=O)C(=O)N2 (stereo partly drawn) [Compound C126, N-((2S)-1-((1-(8-acetyl-2-oxo-1,8-diazaspiro[4.5]decan-3-yl)-4-amino-3,4-dioxobutan-2-yl)amino)-3-cyclohexyl-1-oxopropan-2-yl)-5-chloro-1H-indole-2-carboxamide] | 5.92 |
| CC(C)(c1cccc(Cl)c1)C(OC(=O)N[C@@H](CC1CCCCC1)C(=O)N[C@H](C=O)C[C@@H]1CCNC1=O)c1ccc2ccccc2c1 (stereo partly shown) [Compound C127] | 8.44 |
| CC(C)CN1C(=O)N[C@@H](C[C@@H]2CCNC2=O)C(O)N1C(=O)OCc1ccccc1 (stereo partly drawn) [Compound C129, Benzyl (5S)-6-hydroxy-2-isobutyl-3-oxo-5-(((S)-2-oxopyrrolidin-3-yl)methyl)-1,2,4-triazinane-1-carboxylate] | < 4.70 |
| CC(C)(c1cccc(Cl)c1)C(OC(=O)N[C@@H](CC1CCCCC1)C(=O)N[C@@H](C[C@@H]1CCNC1=O)C(=O)C(N)=O)c1ccc2c(c1)CCC2 (stereo partly drawn) [Compound C131, 2-(3-Chlorophenyl)-1-(2,3-dihydro-1H-inden-5-yl)-2-methylpropyl ((S)-1-(((S)-4-amino-3,4-dioxo-1-((S)-2-oxopyrrolidin-3-yl)butan-2-yl)amino)-3-cyclohexyl-1-oxopropan-2-yl)carbamate] | 4.80 |
| CC(C)(c1cccc(Cl)c1)C(OC(=O)N[C@@H](CC1CCCCC1)C(=O)N[C@H](C=O)C[C@@H]1CCNC1=O)c1ccc2c(c1)CCC2 (stereo partly drawn) [Compound C132, 2-(3-Chlorophenyl)-1-(2,3-dihydro-1H-inden-5-yl)-2-methylpropyl ((S)-3-cyclohexyl-1-oxo-1-(((S)-1-oxo-3-((S)-2-oxopyrrolidin-3-yl)propan-2-yl)amino)propan-2-yl)carbamate] | 7.22 |
| COc1cccc2[nH]c(C(=O)N[C@@H](CC3CCCCC3)C(=O)NC(C=O)CC3CC4(CCN(C(C)=O)CC4)NC3=O)cc12 (stereo partly drawn) [Compound C133, N-((2S)-1-((1-(8-acetyl-2-oxo-1,8-diazaspiro[4.5]decan-3-yl)-3-oxopropan-2-yl)amino)-3-cyclohexyl-1-oxopropan-2-yl)-4-methoxy-1H-indole-2-carboxamide] | 10.07 |
| CC(C)(c1cccc(Cl)c1)C(OC(=O)N[C@@H](CC1CCCCC1)C(=O)N[C@@H](C[C@@H]1CCNC1=O)C(=O)C(N)=O)c1ccc(Cl)cc1 (stereo partly drawn) [Compound C134, 2-(3-Chlorophenyl)-1-(4-chlorophenyl)-2-methylpropyl ((S)-1-(((S)-4-amino-3,4-dioxo-1-((S)-2-oxopyrrolidin-3-yl)butan-2-yl)amino)-3-cyclohexyl-1-oxopropan-2-yl)carbamate] | 6.12 |
| CC(C)(c1cccc(Cl)c1)C(OC(=O)N[C@@H](CC1CCCCC1)C(=O)N[C@@H](C[C@@H]1CCNC1=O)C(=O)C(N)=O)c1ccc(F)cc1 (stereo partly drawn) [Compound C135, 2-(3-Chlorophenyl)-1-(4-fluorophenyl)-2-methylpropyl ((S)-1-(((S)-4-amino-3,4-dioxo-1-((S)-2-oxopyrrolidin-3-yl)butan-2-yl)amino)-3-cyclohexyl-1-oxopropan-2-yl) carbamate] | 5.72 |
| Cc1cccc(C(OC(=O)N[C@@H](CC2CCCCC2)C(=O)N[C@H](C=O)C[C@@H]2CCNC2=O)C(C)(C)c2cccc(Cl)c2)c1 (stereo partly drawn) [Compound C136, 2-(3-Chlorophenyl)-2-methyl-1-(m-tolyl) propyl ((S)-3-cyclohexyl-1-oxo-1-(((S)-1-oxo-3-((S)-2-oxopyrrolidin-3-yl)propan-2-yl)amino)propan-2-yl) carbamate] | 9.35 |
| CC(C)(c1cccc(Cl)c1)C(OC(=O)N[C@@H](CC1CCCCC1)C(=O)N[C@H](C=O)C[C@@H]1CCNC1=O)c1ccc(F)cc1 (stereo partly drawn) [Compound C137, 2-(3-Chlorophenyl)-1-(4-fluorophenyl)-2-methylpropyl ((S)-3-cyclohexyl-1-oxo-1-(((S)-1-oxo-3-((S)-2-oxopyrrolidin-3-yl)propan-2-yl)amino)propan-2-yl) carbamate] | 7.36 |
| CC(C)C(=O)N1CCC2(CC1)CC(CC(NC(=O)[C@H](CC1CCCCC1)NC(=O)c1cc3ccccc3[nH]1)C(=O)C(N)=O)C(=O)N2 (stereo partly drawn) [Compound C138, N-((2S)-1-((4-amino-1-(8-isobutyryl-2-oxo-1,8-diazaspiro[4.5]decan-3-yl)-3,4-dioxobutan-2-yl)amino)-3-cyclohexyl-1-oxopropan-2-yl)-1H-indole-2-carboxamide] | 6.61 |
| CC(C)(C1CCCCC1)C(NC(=O)OCc1ccccc1)C(=O)N[C@H](C=O)C[C@@H]1CCNC1=O (stereo partly drawn) [Compound C140, Benzyl (3-cyclohexyl-3-methyl-1-oxo-1-(((S)-1-oxo-3-((S)-2-oxopyrrolidin-3-yl)propan-2-yl)amino)butan-2-yl)carbamate] | 6.39 |
| CC(=O)N1CCC2(CC1)CC(CC(C=O)NC(=O)[C@H](CC1CCCCC1)NC(=O)c1cc3cc(Cl)ccc3[nH]1)C(=O)N2 (stereo partly drawn) [Compound C141, N-((2S)-1-((1-(8-acetyl-2-oxo-1,8-diazaspiro[4.5]decan-3-yl)-3-oxopropan-2-yl)amino)-3-cyclohexyl-1-oxopropan-2-yl)-5-chloro-1H-indole-2-carboxamide] | 7.51 |
| CC(C)(c1cccc(Cl)c1)C(OC(=O)N[C@@H](CC1CCCCC1)C(=O)N[C@H](C=O)C[C@@H]1CCNC1=O)c1ccc(Cl)cc1 (stereo partly drawn) [Compound C143, 2-(3-Chlorophenyl)-1-(4-chlorophenyl)-2-methylpropyl ((S)-3-cyclohexyl-1-oxo-1-(((S)-1-oxo-3-((S)-2-oxopyrrolidin-3-yl)propan-2-yl)amino)propan-2-yl) carbamate] | 8.44 |
| CC(C)(c1cccc(Cl)c1)C(OC(=O)N[C@@H](CC1CCCCC1)C(=O)N[C@@H](C[C@@H]1CCNC1=O)C(=O)C(=O)NC1CC1)c1ccc(F)cc1 (stereo partly drawn) [Compound C144, 2-(3-Chlorophenyl)-1-(4-fluorophenyl)-2-methylpropyl ((S)-3-cyclohexyl-1-(((S)-4-(cyclopropylamino)-3,4-dioxo-1-((S)-2-oxopyrrolidin-3-yl)butan-2-yl)amino)-1-oxopropan-2-yl) carbamate] | 5.69 |
| CC(C)(c1cccc(Cl)c1)C(OC(=O)N[C@@H](CC1CCCCC1)C(=O)N[C@@H](C[C@@H]1CCNC1=O)C(=O)C(=O)NC1CC1)c1ccc(Cl)cc1 (stereo partly drawn) [Compound C145, 2-(3-Chlorophenyl)-1-(4-chlorophenyl)-2-methylpropyl ((S)-3-cyclohexyl-1-(((S)-4-(cyclopropylamino)-3,4-dioxo-1-((S)-2-oxopyrrolidin-3-yl)butan-2-yl)amino)-1-oxopropan-2-yl) carbamate] | 5.37 |
| O=C(N[C@@H](Cc1ccccc1)C(=O)N[C@@H](C[C@@H]1CCNC1=O)C(=O)C(=O)NC1CC1)OC1CCCC1Cc1cccc(Cl)c1 (stereo partly shown) [Compound C146] | < 4.70 |
| CC(C)C[C@H](NC(=O)OC(Cc1cccc(Cl)c1)c1ccccc1)C(=O)N[C@@H](C[C@@H]1CCNC1=O)C(=O)C(=O)NC1CC1 (stereo partly drawn) [Compound C147, 2-(3-Chlorophenyl)-1-phenylethyl ((S)-1-(((S)-4-(cyclopropylamino)-3,4-dioxo-1-((S)-2-oxopyrrolidin-3-yl)butan-2-yl)amino)-4-methyl-1-oxopentan-2-yl) carbamate] | 5.52 |
| CC(C)(c1cccc(Cl)c1)C(OC(=O)N[C@@H](CC1CCCCC1)C(=O)N[C@@H](C[C@@H]1CCNC1=O)C(=O)C(=O)NC1CC1)c1ccccc1 (stereo partly drawn) [Compound C148, 2-(3-Chlorophenyl)-2-methyl-1-phenylpropyl ((S)-3-cyclohexyl-1-(((S)-4-(cyclopropylamino)-3,4-dioxo-1-((S)-2-oxopyrrolidin-3-yl)butan-2-yl)amino)-1-oxopropan-2-yl)carbamate] | 6.01 |
| O=C(N[C@@H](CC1CCCCC1)C(=O)N[C@@H](C[C@H]1CC2(CCCCC2)NC1=O)C(=O)C(=O)NC1CC1)OCc1cccc(Cl)c1 [Compound C149, 3-Chlorobenzyl ((S)-3-cyclohexyl-1-(((S)-4-(cyclopropylamino)-3,4-dioxo-1-((S)-2-oxo-1-azaspiro[4.5]decan-3-yl)butan-2-yl)amino)-1-oxopropan-2-yl)carbamate] | 5.40 |
| CC(C)(c1cccc(Cl)c1)C(OC(=O)N[C@@H](CC1CCCCC1)C(=O)N[C@@H](C[C@@H]1CCNC1=O)C(=O)C(=O)N1CCCC1)c1ccc2ccccc2c1 (stereo partly drawn) [Compound C150, 2-(3-Chlorophenyl)-2-methyl-1-(naphthalen-2-yl)propyl ((S)-3-cyclohexyl-1-(((S)-3,4-dioxo-1-((S)-2-oxopyrrolidin-3-yl)-4-(pyrrolidin-1-yl)butan-2-yl)amino)-1-oxopropan-2-yl)carbamate] | < 4.70 |
| O=C(N[C@@H](CC1CCCCC1)C(=O)N[C@@H](C[C@@H]1CCNC1=O)C(=O)C(=O)NC1CC1)OC1CCCC1Cc1cccc(Cl)c1 (stereo partly drawn) [Compound C151, 2-(3-Chlorobenzyl)cyclopentyl ((S)-3-cyclohexyl-1-(((S)-4-(cyclopropylamino)-3,4-dioxo-1-((S)-2-oxopyrrolidin-3-yl)butan-2-yl)amino)-1-oxopropan-2-yl)carbamate] | 5.44 |
| CC(C)C[C@H](NC(=O)OC1CCCC1Cc1cccc(Cl)c1)C(=O)N[C@H](C=O)C[C@@H]1CCNC1=O (stereo partly drawn) [Compound C152, 2-(3-chlorobenzyl)cyclopentyl ((S)-4-methyl-1-oxo-1-(((S)-1-oxo-3-((S)-2-oxopyrrolidin-3-yl)propan-2-yl)amino)pentan-2-yl)carbamate] | 7.93 |
| O=C(N[C@@H](CC1CCCCC1)C(=O)NC(CC1CC2(CCCCC2)NC1=O)C(=O)C(=O)NC1CC1)OC(Cc1cccc(Cl)c1)c1ccccc1 (stereo partly drawn) [Compound C153, 2-(3-Chlorophenyl)-1-phenylethyl ((2S)-3-cyclohexyl-1-((4-(cyclopropylamino)-3,4-dioxo-1-(2-oxo-1-azaspiro[4.5]decan-3-yl)butan-2-yl)amino)-1-oxopropan-2-yl)carbamate] | < 4.70 |
